SMILES strings stand for the structures. Where two headings read alike, the source gives them in different places.

The test system of test [1] is enzymatic coupling reaction. As to the kind of experiment: Influence on enzymatic coupling itself (25 μM ADP instead of CMP). The class given is biochemical. The following applies: 25 μM ADP instead of 50 μM CMP. How it is done:
In addition, the same operations were performed using 25 μM ADP instead of 50 μM CMP, and an influence of Ap5A on enzymatic coupling itself was studied. In addition, some of the reaction solution after the kinase reaction of CMPK1 was used, an amount of produced CDP was measured by the HPLC analysis method described in Example 14, and an inhibitory activity was determined by an HPLC method.

For a further test, the target named is T1, CMPK1 (Homo sapiens, UniProt P30085).
T1 construct: purchased Prospec pKa-002-b
T1 sequence (P30085 1-196): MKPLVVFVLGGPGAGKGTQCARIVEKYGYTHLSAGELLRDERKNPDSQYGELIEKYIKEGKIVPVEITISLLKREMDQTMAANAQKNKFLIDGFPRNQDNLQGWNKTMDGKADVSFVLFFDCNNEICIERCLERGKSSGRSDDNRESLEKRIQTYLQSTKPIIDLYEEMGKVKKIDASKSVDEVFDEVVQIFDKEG
Nature of the test: Inhibition of CMPK1 measured by the enzymatic coupling fluorescence method. It counts as biochemical. The following applies: enzymatic coupling with 20 mM N-ethylmaleimide; matched HPLC method. As to the method: Enzyme inhibitory activities of Ap5A (P^1,P^5-Di(adenosine-5′)pentaphosphate) in which inhibitory activities of dictyostelium (Dictyostelium discoideum) on CMP kinase have been reported (J. Biol. Chem, Vol. 265, No. 11, pp. 6339-6345, 1990) on CMPK1 were measured using a method of the present invention. A 0 to 3 mM Ap5A (1 μl) (catalog number D4022 commercially available from Sigma-Aldrich) solution and 50 μM CMP (2 μl) were added to a 384-well microplate, and 200 μM ATP (2 μi), 3 μg/ml CMPK1, and 4 mM DTT were added thereto (a buffer solution composition included 100 mM Tris-HCl (pH 9), 13.5 mM MgCl2, 150 mM KCl, and 0.1% TritonX-100). The result was covered with a plate seal and incubated for 1 hour at 37° C. Then, the result was cooled at room temperature, and the mixed solution for enzymatic coupling (5 μl) containing 20 mM N-ethylmaleimide was added and incubated for 60 minutes at 25° C. in darkness. Then, fluorescence was measured using a plate reader. A group containing no Ap5A was set as a control (an inhibition rate of 0%), a group containing no CMPK1 was set as a control (an inhibition rate of 100%), and inhibition rates of Ap5A of respective concentrations on CMPK1 were calculated.

The subject of test [2] is enzymatic coupling reaction. As to the kind of experiment: Influence on enzymatic coupling itself (50 μM GDP instead of GDP-fucose). It counts as biochemical. Conditions: 50 μM GDP instead of 100 μM GDP-fucose. How it is done:
(§1) In addition, the same operations were performed using 50 μM GDP instead of 100 μM GDP-fucose, and an influence of enzymatic coupling itself on gallic acid was studied. In addition, an amount of GDP produced was quantified by HPLC analysis using some of the reaction solution after the FUT7 enzymatic reaction, and an inhibitory activity was determined by an HPLC method.

Test [3] deals with T2, human FUT7 (Homo sapiens, UniProt Q11130).
T2 sequence (Q11130 1-342): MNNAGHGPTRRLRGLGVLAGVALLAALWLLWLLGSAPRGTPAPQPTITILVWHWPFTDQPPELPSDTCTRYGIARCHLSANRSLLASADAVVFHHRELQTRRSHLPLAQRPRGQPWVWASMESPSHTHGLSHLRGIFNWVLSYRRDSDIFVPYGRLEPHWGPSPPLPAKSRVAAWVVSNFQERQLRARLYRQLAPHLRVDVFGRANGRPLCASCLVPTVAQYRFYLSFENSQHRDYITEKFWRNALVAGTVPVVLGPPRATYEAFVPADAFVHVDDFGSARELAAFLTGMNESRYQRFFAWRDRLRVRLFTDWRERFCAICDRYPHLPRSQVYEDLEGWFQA
As to the kind of experiment: Inhibition of FUT7 measured by HPLC quantification of produced GDP. The class given is biochemical. The following applies: FUT7 1 μg/ml, read-out: IC50 value, inhibitory activity on FUT7. As to the method:
as §1
HPLC conditions were as follows: column: YMC-Triart C18 (commercially available from Ymc Corporation, particle size: 5 μm, and diameter: 4.6 mm×length: 150 mm), eluate: 50 mM KH2PO4—K2HPO4 (10:1), flow rate: 1 ml/min, and detection: UV 260 nm.

Test [4] deals with T2, human FUT7. As to the kind of experiment: Inhibition of FUT7 measured by the enzymatic coupling fluorescence method of the invention. The following applies: method of the present invention, FUT7 1 μg/ml; read-out: IC50 value, inhibitory activity on FUT7. The class given is biochemical. How it is done:
100 μM GDP-fucose (2.5 μl), 6 mg/ml fetuin, and 0 to 4 μg/ml FUT7 (2.5 μl) were added to a 384-well microplate (a buffer solution included 50 mM Tris-HCl (pH 7.5), 5 mM MgCl2, 10 mM MnCl2, and 0.1% Triton X-100), covered with a plate seal (catalog number 1-6774-01 commercially available from AS ONE corporation) and incubated for 1 hour at 37° C. After being cooled to room temperature, the mixed solution A for the first process (5 μl) was added to the result and incubated for 1 hour at 25° C. The mixed solution B for the second process (10 μl) was added to the result, and incubated for 30 minutes at 25° C. Fluorescence thereof was measured similarly to Example 1. A fluorescence value according to an enzyme concentration was confirmed.
When enzyme activities of FUT7 were measured using the method described in Example 4, an inhibitory effect of gallic acid on FUT7 was studied according to the same operations as in Example 4 except that a reaction of FUT7 (a concentration of 1 μg/ml in a transglucosylation solution) was caused in the presence of gallic acid. A group containing no gallic acid was set as a control (an inhibition rate of 0%), a group containing no FUT7 was set as a control (an inhibition rate of 100%), and inhibition rates of gallic acid of respective concentrations of FUT7 were calculated.

In test [5] the target is T2, human FUT7. Conditions: reported in Arch. Biochem. Biophys, Vol. 425, No. 1, pp. 51-57, 2004; cited from earlier work.

In the case of `Nc1ncnc2c1ncn2[C@@H]1O[C@H](COP(=O)(O)OP(=O)(O)OP(=O)(O)OP(=O)(O)OP(=O)(O)OC[C@H]2O[C@@H](n3cnc4c(N)ncnc43)[C@H](O)[C@@H]2O)[C@@H](O)[C@H]1O` [Ap5A, P^1,P^5-Di(adenosine-5′)pentaphosphate], the “inhibition of the enzymatic coupling reaction itself” value in test [1] is “did not inhibit the enzymatic coupling reaction itself at all”. For the same molecule, on CMPK1, the “inhibitory activity on CMPK1” value is “inhibition of CMPK1”.
As for `O=C(O)c1cc(O)c(O)c(O)c1` [gallic acid], the “inhibition of the enzymatic coupling reaction itself” value in test [2] is “did not inhibit the enzymatic coupling reaction itself at all”. The values for the IC50 at human FUT7 [3], at human FUT7 [4] and on human FUT7 [5] were roughly 10 µM, roughly 10 µM and 5.4 µM, respectively.

Broadly, the IC50 is the midpoint of a concentration-inhibition curve.

(Values after patent US20160289728A1, “METHOD FOR DETECTING FLUORESCENCE OR ABSORBANCE, METHOD FOR SUPPRESSING BACKGROUND, METHOD FOR MEASURING ADP, METHOD FOR MEASURING ACTIVITY OF ADP-SYNTHESIZING ENZYME, AND METHOD FOR MEASURING ACTIVITY OF GLUCOSYLTRANSFERASE” (The University of Tokyo, priority 2013, published 2016).)
